# Publication PMC9728581 (Frontiers in Pharmacology, 2022)
# Legend:
# [1] = Population pharmacokinetic (NONMEM) model of unbound teicoplanin in Chinese adult patients; assay type: in vivo, human
# Description: The pregnant female patients, hemodialysis patients, disseminated intravascular coagulation patients, and continuous renal replacement therapy patients were excluded.
# (§1) However, prescribed dosing regimens were at the discretion of treating physicians based on the severity of the patient’s disease and the standard dosing regimen was not always followed. The daily dose range of patients included in this study was 50–1,600 mg.
# (§2) Blood samples were typically collected within 30 min to 1 h preceding the 4th dose and the 6th dose, and depending on the actual clinical situation, blood samples might be taken at other time for TDM during the treatment. The Plasma samples were placed in a Centrifree® ultrafiltration device and placed in a 37°C water bath for 30 min, followed by centrifugation at 37°C, 1,500 × g for 30 min, and the ultrafiltrate was directly used for the determination of unbound concentration by ultra-performance liquid chromatography-tandem mass spectrometry (UPLC-MS/MS) method. […] The average relative recovery ratio was 97.9%, and the matrix effect factor was 0.97. Details of blood handling, storage and measurement have been described previously ([Fu et al., 2020]).
# The PopPK modeling was performed using NONMEM (non-linear mixed effects modeling, v7.2, Globomax Corp, United States), and Wings for NONMEM (v6.1, Nick Holford, University of Auckland, New Zealand) was used as an auxiliary software for NONMEM execution. R (v3.6.1, Saik Urien, U.R.C. Paris Centre, Hopital Tarnier, France) was used for exploratory data analysis, data assembly, and graphical presentation of modeling and simulation results.
# The parameter estimation method for PopPK model was FOCEI (first order conditional estimation with η-ε interaction option). The inter-individual variability (IIV) of the parameters were estimated using exponential random effects. θi=θ∙e^ηi (5) Where θi is the estimated parameter value of the individual i, θ represents the typical population parameter, and ηi (IIV) is assumed to follow the normal distribution with mean of 0 and variance of ω^2 and was estimated during model fitting.
# The additive, proportional, and mixed residual error models were compared separately, and finally the mixed residual error model was selected for data fitting.
# Covariate modeling analysis was used to explore the source of variability.
# The stepwise covariate modeling approach was used to establish the covariate model in this analysis. During the forward selection step, all covariates were added to the PK parameters in the base model one by one. Covariates were screened based on the changes in objective function values (OFV) and graphical evaluation. The covariate with a significant effect (p < 0.05, e.g., df = 1, ΔOFV ≥ 3.84) would be added to the basic model to build a full model. Based on the full model, the existing covariates were deleted one by one as the backward elimination step. For each deleted covariate, the increase in OFV should be ≥ 10.83 (p < 0.001, df = 1), otherwise, this covariate should be excluded from the final model.
# Continuous covariates (e.g., WT) were added to the model according to the following equation. θi=θTV×(covi/covmedian)^θx (7) Where θi is the parameter value of the ith individual; θTV is the population typical value of PK parameters; covi is the covariate value of the ith individual; covmedian is the median value of this covariate; θx is the influence coefficient of the covariate on the parameters.
# Categorical covariates (e.g., gender) were added to the model according to the following equations: θi=θTV+θx,cov=xl if Cov=Xl (8) θi=θTV if Cov=X0 (9) Where θx,cov=xl is the change in a parameter when covariate X is at level l compared with the reference level (0).
# The performance and stability of the final model were estimated using non-parametric bootstrap. 1,000 datasets generated by random sampling were evaluated. […]
# [2] = Unbound teicoplanin plasma concentration, ultrafiltration and UPLC-MS/MS; assay type: in vivo, human; conditions: plasma ultrafiltrate (Centrifree, 37°C), 103 observations, 72 patients, daily dose 50–1,600 mg i.v.
# Description: as §1, §2
# [3] = test system: serum albumin; conditions: ref Gao et al., 2020; cited from earlier work
# Description: In this study, the protein binding ratio was calculated as the average value of 92.5%.
# [4] = ref Pauluzzi et al., 1987; cited from earlier work
# Text: Previous studies have shown that adverse events inc ...
# [5] = non-parametric bootstrap, 1,000 datasets
substance,measurement,setting,value
teicoplanin,"θALB, bootstrap median",[1]; [5],1.55 g/L
same,"θCL, bootstrap median",[1]; [5],11.38 L/h
same,"θV, bootstrap median",[1]; [5],822 L
same,"θeGFR, bootstrap median",[1]; [5],0.501 mL/min
same,"θV, population typical value of the volume of distribution (NONMEM estimate)","[1]; unbound teicoplanin, one-compartment model, 72 patients, 103 observations, at ALB 32",811 L
same,"θCL, population typical value of clearance (NONMEM estimate)","[1]; unbound teicoplanin, one-compartment, first-order elimination, 72 Chinese adult patients, 103 observations, i.v. infusion, at eGFR 84",11.7 L/h
same,"Unbound teicoplanin concentrations, range",[2],0.4 to 4.4 µg/mL
same,"Unbound teicoplanin concentrations, mean ± SD","[2]; mostly trough, SD",1.5 ± 0.9 µg/mL
same,bound to serum albumin (protein binding ratio),[3],90%–95%
same,total Ctrough above which thrombocytopenia was more common,[4],> 60 µg/mL
